Data: ChEMBL document CHEMBL5113453, “Design, synthesis, and biological evaluation of a new series of pyrazole derivatives: Discovery of potent and selective JNK3 kinase inhibitors” (Bioorg Med Chem, 2022)
pIC50: −log10 of the molar value.

Key:
[1] = molecular target: T1, Mitogen-activated protein kinase 10 (Homo sapiens, UniProt P53779); test: Inhibition of JNK3 (unknown origin)
[2] = molecular target: T1, Mitogen-activated protein kinase 10; test: Inhibition of JNK3 (unknown origin) at 1 uM relative to control
[3] = system: TK-10; test: Antiproliferative activity against human TK-10 cells measured after 48 hrs by SRB assay; format: functional, cell-based; settings: TK-10, time 48 hrs
[4] = system: IGROV-1; test: Antiproliferative activity against human IGROV-1 cells measured after 48 hrs by SRB assay; format: functional, cell-based; settings: IGROV-1, time 48 hrs
[5] = system: UACC-257; test: Antiproliferative activity against human UACC-257 cells measured after 48 hrs by SRB assay; format: functional, cell-based; settings: UACC-257, time 48 hrs
[6] = system: WI-38; test: Antiproliferative activity against human WI-38 cells measured by MTT assay; format: functional, cell-based
[7] = system: HOP-92; test: Antiproliferative activity against human HOP-92 cells measured after 48 hrs by SRB assay; format: functional, cell-based; settings: HOP-92, time 48 hrs
[8] = system: ACHN; test: Antiproliferative activity against human ACHN cells measured after 48 hrs by SRB assay; format: functional, cell-based; settings: time 48 hrs
[9] = system: NCI-H23; test: Antiproliferative activity against human NCI-H23 cells measured after 48 hrs by SRB assay; format: functional, cell-based; settings: NCI-H23, time 48 hrs
[10] = system: NCI/ADR-RES; test: Antiproliferative activity against human NCI-ADR-RES cells measured after 48 hrs by SRB assay; format: functional, cell-based; settings: time 48 hrs
[11] = system: HL-60(TB); test: Antiproliferative activity against human HL-60(TB) cells measured after 48 hrs by SRB assay; format: functional, cell-based; settings: HL-60, time 48 hrs
[12] = system: MCF7; test: Antiproliferative activity against human MCF7 cells measured after 48 hrs by SRB assay; format: functional, cell-based; settings: MCF7, time 48 hrs
[13] = system: MOLT-4; test: Antiproliferative activity against human MOLT-4 cells measured after 48 hrs by SRB assay; format: functional, cell-based; settings: MOLT-4, time 48 hrs
[14] = organism: Homo sapiens; test: RatioIC50 for inhibition of […] (unknown origin)
[15] = molecular target: T2, Platelet-derived growth factor receptor alpha (Homo sapiens, UniProt P16234); test: Inhibition of PDGFRalpha (unknown origin)
T2 sequence (P16234 whole entry): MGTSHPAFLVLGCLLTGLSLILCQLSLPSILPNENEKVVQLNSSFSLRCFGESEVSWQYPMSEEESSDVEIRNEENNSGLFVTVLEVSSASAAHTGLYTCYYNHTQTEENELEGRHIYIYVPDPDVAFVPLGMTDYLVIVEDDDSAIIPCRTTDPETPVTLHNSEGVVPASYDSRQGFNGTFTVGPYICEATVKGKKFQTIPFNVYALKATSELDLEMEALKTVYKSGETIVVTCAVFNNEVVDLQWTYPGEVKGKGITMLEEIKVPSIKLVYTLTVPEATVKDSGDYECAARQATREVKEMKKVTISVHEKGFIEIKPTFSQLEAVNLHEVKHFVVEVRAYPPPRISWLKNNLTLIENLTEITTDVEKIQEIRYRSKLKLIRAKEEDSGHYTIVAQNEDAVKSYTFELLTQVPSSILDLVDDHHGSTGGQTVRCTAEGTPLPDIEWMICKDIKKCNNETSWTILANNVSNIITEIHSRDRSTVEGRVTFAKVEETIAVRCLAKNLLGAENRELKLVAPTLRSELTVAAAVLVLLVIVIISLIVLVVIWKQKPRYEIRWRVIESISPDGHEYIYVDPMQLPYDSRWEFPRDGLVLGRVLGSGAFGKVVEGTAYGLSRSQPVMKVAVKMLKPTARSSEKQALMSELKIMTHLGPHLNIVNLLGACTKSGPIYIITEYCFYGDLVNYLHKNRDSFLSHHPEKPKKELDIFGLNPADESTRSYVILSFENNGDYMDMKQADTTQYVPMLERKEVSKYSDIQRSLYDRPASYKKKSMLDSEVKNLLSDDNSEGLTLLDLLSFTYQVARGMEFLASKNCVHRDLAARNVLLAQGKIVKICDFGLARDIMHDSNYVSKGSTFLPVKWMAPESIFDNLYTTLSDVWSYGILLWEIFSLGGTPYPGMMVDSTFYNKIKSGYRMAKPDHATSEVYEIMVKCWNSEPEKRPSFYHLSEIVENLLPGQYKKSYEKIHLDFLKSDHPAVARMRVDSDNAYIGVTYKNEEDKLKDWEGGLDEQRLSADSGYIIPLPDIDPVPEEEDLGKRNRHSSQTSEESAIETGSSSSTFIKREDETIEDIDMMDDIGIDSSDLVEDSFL

[16] = molecular target: Voltage-gated inwardly rectifying potassium channel KCNH2 (Homo sapiens, UniProt Q12809); test: Inhibition of hERG measured by fluorescence polarization assay
Sequence of Voltage-gated inwardly rectifying potassium channel KCNH2 (Q12809 whole entry): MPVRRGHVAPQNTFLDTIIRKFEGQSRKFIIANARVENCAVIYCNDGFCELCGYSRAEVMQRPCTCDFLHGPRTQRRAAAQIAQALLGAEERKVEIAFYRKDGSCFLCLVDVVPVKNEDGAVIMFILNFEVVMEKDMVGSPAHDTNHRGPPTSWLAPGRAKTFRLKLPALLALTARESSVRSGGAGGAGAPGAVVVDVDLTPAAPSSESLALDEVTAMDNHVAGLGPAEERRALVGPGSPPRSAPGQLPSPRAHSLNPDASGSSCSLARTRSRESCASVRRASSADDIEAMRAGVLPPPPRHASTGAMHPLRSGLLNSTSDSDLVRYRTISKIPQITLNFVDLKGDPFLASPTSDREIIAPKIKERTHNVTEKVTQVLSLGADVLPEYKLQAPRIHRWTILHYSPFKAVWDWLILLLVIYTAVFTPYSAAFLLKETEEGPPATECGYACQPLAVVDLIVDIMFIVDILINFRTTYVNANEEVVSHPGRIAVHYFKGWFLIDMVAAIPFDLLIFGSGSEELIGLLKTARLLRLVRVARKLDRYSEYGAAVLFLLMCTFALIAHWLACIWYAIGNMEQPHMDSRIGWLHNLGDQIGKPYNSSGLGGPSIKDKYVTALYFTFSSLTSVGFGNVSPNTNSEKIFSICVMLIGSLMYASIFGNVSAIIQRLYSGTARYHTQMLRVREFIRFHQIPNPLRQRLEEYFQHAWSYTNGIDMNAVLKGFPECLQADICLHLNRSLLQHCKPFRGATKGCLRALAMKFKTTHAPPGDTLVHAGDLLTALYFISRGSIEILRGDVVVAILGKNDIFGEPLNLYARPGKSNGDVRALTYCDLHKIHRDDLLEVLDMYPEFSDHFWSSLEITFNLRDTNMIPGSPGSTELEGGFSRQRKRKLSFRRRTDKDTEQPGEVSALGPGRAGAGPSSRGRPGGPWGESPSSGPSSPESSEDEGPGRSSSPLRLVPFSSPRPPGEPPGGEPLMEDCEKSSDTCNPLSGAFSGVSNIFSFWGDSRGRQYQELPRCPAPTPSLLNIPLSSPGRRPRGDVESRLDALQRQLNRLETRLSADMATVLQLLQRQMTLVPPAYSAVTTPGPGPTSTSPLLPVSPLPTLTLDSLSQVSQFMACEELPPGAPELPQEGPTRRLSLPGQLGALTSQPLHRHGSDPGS

[17] = molecular target: Cytochrome P450 3A4 (Homo sapiens, UniProt P08684); test: Inhibition of CYP3A4 (unknown origin) using BOMCC as a substrate; format: ADME
Sequence of Cytochrome P450 3A4 (P08684 whole entry): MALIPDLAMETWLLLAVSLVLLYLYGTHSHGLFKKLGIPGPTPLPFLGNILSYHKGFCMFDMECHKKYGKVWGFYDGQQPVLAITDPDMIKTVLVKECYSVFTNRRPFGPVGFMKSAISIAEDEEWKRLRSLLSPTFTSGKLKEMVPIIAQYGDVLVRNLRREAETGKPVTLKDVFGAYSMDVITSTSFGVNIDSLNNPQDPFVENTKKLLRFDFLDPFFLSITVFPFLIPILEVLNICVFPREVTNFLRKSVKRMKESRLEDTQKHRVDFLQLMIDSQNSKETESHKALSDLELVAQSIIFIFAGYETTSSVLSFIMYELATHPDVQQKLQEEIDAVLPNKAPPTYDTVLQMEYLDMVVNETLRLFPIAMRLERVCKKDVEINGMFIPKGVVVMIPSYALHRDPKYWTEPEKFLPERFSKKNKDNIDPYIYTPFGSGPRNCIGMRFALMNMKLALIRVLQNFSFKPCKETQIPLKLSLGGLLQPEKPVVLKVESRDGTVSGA

[18] = system: Serine/threonine-protein kinase B-raf (Homo sapiens), P15056 [V600E]; test: Inhibition of B-RAF V600E mutant (unknown origin) at 1 uM relative to control
Sequence of Serine/threonine-protein kinase B-raf (Homo sapiens), P15056 [V600E] (P15056 whole entry V600E): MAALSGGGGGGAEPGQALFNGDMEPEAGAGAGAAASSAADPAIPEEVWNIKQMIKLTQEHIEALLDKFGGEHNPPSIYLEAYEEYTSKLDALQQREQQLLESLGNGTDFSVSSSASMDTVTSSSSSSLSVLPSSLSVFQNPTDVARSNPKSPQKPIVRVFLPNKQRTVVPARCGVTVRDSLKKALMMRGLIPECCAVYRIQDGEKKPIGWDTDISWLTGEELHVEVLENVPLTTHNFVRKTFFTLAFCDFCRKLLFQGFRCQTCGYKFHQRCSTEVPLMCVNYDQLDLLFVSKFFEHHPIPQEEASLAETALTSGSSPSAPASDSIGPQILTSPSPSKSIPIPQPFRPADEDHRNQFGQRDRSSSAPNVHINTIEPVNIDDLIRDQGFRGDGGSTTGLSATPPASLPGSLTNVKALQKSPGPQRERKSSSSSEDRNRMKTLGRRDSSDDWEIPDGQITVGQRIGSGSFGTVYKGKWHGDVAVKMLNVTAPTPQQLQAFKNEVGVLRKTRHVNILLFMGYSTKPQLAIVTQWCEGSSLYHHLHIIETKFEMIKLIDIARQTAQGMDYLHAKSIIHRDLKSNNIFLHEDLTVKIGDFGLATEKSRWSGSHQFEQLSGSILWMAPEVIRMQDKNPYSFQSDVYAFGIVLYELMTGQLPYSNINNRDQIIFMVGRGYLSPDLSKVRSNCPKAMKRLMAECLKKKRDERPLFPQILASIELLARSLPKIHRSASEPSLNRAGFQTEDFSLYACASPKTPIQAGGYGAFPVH

[19] = molecular target: T2, Platelet-derived growth factor receptor alpha; test: Inhibition of PDGFRalpha (unknown origin) at 1 uM relative to control
[20] = molecular target: T1, Mitogen-activated protein kinase 10; test: Inhibition of JNK3 in human HEK293 cells transfected with JNK3-NanoLuc fusion vector measured after 1 hr by NanoBRET assay; format: cell-based
[21] = system: HepG2; test: Antiproliferative activity against human HepG2 cells measured by MTT assay; format: functional, cell-based
[22] = molecular target: Cytochrome P450 2D6 (Homo sapiens, UniProt P10635); test: Inhibition of CYP2D6 (unknown origin) using EOMCC as a substrate; format: ADME
Sequence of Cytochrome P450 2D6 (P10635 whole entry): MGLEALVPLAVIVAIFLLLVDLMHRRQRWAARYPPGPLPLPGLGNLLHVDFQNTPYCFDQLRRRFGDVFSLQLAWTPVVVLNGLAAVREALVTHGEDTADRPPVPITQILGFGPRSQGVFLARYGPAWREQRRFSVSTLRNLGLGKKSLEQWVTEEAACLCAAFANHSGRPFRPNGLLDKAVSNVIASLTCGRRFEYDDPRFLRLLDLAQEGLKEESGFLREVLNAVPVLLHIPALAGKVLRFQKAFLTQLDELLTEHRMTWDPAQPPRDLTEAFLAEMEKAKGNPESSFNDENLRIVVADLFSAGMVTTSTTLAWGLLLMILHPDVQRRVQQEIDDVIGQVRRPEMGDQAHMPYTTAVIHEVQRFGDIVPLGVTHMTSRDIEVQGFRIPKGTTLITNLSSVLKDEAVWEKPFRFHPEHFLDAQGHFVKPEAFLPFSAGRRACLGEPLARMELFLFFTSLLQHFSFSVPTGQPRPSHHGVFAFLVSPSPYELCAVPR

T1 sequence (P53779 whole entry): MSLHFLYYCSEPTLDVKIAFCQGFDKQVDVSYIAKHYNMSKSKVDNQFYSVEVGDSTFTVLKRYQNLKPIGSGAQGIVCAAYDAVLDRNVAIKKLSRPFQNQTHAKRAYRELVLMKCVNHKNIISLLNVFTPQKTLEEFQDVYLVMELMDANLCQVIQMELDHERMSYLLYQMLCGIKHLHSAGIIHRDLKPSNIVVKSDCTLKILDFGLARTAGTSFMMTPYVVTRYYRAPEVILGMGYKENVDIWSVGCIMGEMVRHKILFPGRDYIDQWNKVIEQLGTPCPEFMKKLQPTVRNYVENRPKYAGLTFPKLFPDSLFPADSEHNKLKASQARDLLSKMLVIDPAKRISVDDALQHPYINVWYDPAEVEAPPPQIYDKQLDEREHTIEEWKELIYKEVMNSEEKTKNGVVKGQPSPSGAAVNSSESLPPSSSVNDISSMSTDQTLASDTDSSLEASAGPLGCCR

| SMILES | pIC50 [1] | inhibition [2] | also measured |
| --- | --- | --- | --- |
| O=C(Nc1ccc(F)cc1)N1CCN(c2cc(-c3cn(-c4ccccc4)nc3-c3cccc(O)c3)ccn2)CC1 | < 6.00 | 8% |  |
| O=C(Nc1cccc(C(F)(F)F)c1)N1CCN(c2cc(-c3cn(-c4ccccc4)nc3-c3cccc(O)c3)ccn2)CC1 | < 6.00 | 17% |  |
| COc1cccc(-c2nn(-c3ccccc3)cc2-c2ccnc(N3CCN(C(=O)Nc4cc(C(F)(F)F)cc(C(F)(F)F)c4)CC3)c2)c1 | < 6.00 | 9% |  |
| COc1cccc(-c2nn(-c3ccccc3)cc2-c2ccnc(N3CCN(C(=O)Nc4ccc(F)cc4)CC3)c2)c1 | < 6.00 | 0% |  |
| O=C(Nc1ccccc1)N1CCN(c2cc(-c3cn(-c4ccccc4)nc3-c3cccc(O)c3)ccn2)CC1 | < 6.00 | 6% |  |
| O=C(NCCNc1cc(-c2cn(-c3ccccc3)nc2-c2cccc(O)c2)ccn1)Nc1ccc(F)cc1 | 6.72 | 83% |  |
| CNC(=O)c1cc(Oc2ccc(NC(=O)Nc3ccc(Cl)c(C(F)(F)F)c3)cc2)ccn1 [SORAFENIB] |  |  | TGI [3]: 10 µM; TGI [4]: 10 µM; TGI [5]: 5.01 µM; pIC50 [6]: 4.83; TGI [7]: 5.01 µM; TGI [8]: 10 µM; TGI [9]: 5.01 µM; TGI [10]: 7.94 µM; TGI [11]: 100 µM; TGI [12]: 7.94 µM; TGI [13]: 100 µM |
| COc1cccc(-c2nn(-c3ccccc3)cc2-c2ccnc(N3CCN(C(=O)Nc4ccccc4)CC3)c2)c1 | < 6.00 | 8% |  |
| O=C(NCCNc1cc(-c2cn(-c3ccccc3)nc2-c2cccc(O)c2)ccn1)Nc1cc(C(F)(F)F)cc(C(F)(F)F)c1 | < 6.00 | 19% |  |
| O=C(NCCNc1cc(-c2cn(-c3ccccc3)nc2-c2cccc(O)c2)ccn1)Nc1cccc(C(F)(F)F)c1 | 7.00 | 84% | Ratio IC50 [14]: 10.1; pIC50 [15]: 6.00; pIC50 [16]: < 4.30; pIC50 [17]: 4.69; pIC50 [6]: 4.73; inhibition [18]: 9%; inhibition [19]: 50%; pIC50 [20]: 5.41; pIC50 [21]: 5.81; pIC50 [22]: 5.20 |
| O=C(Nc1cc(C(F)(F)F)cc(C(F)(F)F)c1)N1CCN(c2cc(-c3cn(-c4ccccc4)nc3-c3cccc(O)c3)ccn2)CC1 | < 6.00 | 1% |  |
| O=C(NCCCNc1cc(-c2cn(-c3ccccc3)nc2-c2cccc(O)c2)ccn1)Nc1cc(C(F)(F)F)cc(C(F)(F)F)c1 | < 6.00 | 0% |  |
| COc1cccc(-c2nn(-c3ccccc3)cc2-c2ccnc(N3CCN(C(=O)Nc4ccc(Cl)c(C(F)(F)F)c4)CC3)c2)c1 | < 6.00 | 7% |  |
| COc1cccc(-c2nn(-c3ccccc3)cc2-c2ccnc(N3CCN(C(=O)Nc4ccc(Cl)c(Cl)c4)CC3)c2)c1 | < 6.00 | 4% |  |
| O=C(NCCCNc1cc(-c2cn(-c3ccccc3)nc2-c2cccc(O)c2)ccn1)Nc1ccc(Cl)c(Cl)c1 | < 6.00 | 13% |  |
| COc1cccc(-c2nn(-c3ccccc3)cc2-c2ccnc(N3CCN(C(=O)Nc4cccc(C(F)(F)F)c4)CC3)c2)c1 | < 6.00 | 10% |  |
| O=C(Nc1ccc(Cl)c(Cl)c1)N1CCN(c2cc(-c3cn(-c4ccccc4)nc3-c3cccc(O)c3)ccn2)CC1 | < 6.00 | 3% |  |
| O=C(NCCCNc1cc(-c2cn(-c3ccccc3)nc2-c2cccc(O)c2)ccn1)Nc1ccc(Cl)c(C(F)(F)F)c1 | 6.21 | 63% |  |
| O=C(NCCNc1cc(-c2cn(-c3ccccc3)nc2-c2cccc(O)c2)ccn1)Nc1ccc(Cl)c(Cl)c1 | 6.28 | 69% | pIC50 [6]: 4.76; pIC50 [21]: 5.55 |
| O=C(NCCNc1cc(-c2cn(-c3ccccc3)nc2-c2cccc(O)c2)ccn1)Nc1ccc(Cl)c(C(F)(F)F)c1 | < 6.00 | 38% |  |
